pIC50, pKd, pKi: −log10 of the molar value. Each block holds one compound with its values, some of them ahead of it. Where a SMILES comes first, the peptide text is derived from it. [ ]: non-standard residue; d: D form. The star is where a group is joined. Nle = CCCC[C@H](N)C(=O)O; Bz = O=C(c1ccccc1)*
Key:
[1] = biological target: T1, Genome polyprotein (West Nile virus, UniProt P06935); assay: Inhibition of WNV NS2B-NS3 protease
[2] = biological target: T1, Genome polyprotein; assay: Binding affinity to WNV NS2B-NS3 protease measured as change of 1H chemical shift of Thr52 and Glu101 by NMR spectroscopy
[3] = biological target: T1, Genome polyprotein; assay: Inhibition of WNV NS2B-NS3 protease by enzymatic assay
[4] = biological target: T1, Genome polyprotein; assay: Inhibition of WNV NS2B-NS3 protease by tryptophan fluorescence assay
[5] = biological target: T1, Genome polyprotein; assay: Binding affinity to WNV NS2B(K96A)-NS3 protease measured as change of 15N chemical shift of Ser137 by NMR spectroscopy
[6] = biological target: T1, Genome polyprotein; assay: Binding affinity to WNV NS2B(K96A)-NS3 protease measured as change of 15N chemical shift of Val100 by NMR spectroscopy
[7] = biological target: T1, Genome polyprotein; assay: Binding affinity to WNV NS2B(K96A)-NS3 protease measured as change of 15N chemical shift of Ala36 by NMR spectroscopy
[8] = biological target: T1, Genome polyprotein; assay: Binding affinity to WNV NS2B(K96A)-NS3 protease measured as change of 1H chemical shift of Glu101 by NMR spectroscopy

SMILES: Cc1ccc(C(NN=C(N)N)[PH](=O)O)cc1 (stereo not given)
- pKi [1]: 4.89

SMILES: NC(N)=N/N=C\c1ccc(/C=N\N=C(N)N)cc1
- pKi [1]: 4.46

- pKd [2]: 4.40
SMILES: Cc1cc(CSC(=N)N)c(C)cc1CSC(=N)N

SMILES: CC1CNC(c2ccc(Nc3nnc(Nc4ccc(C5=NC(C)CN5)cc4)c4ccccc34)cc2)=N1 (stereo not given)
- pIC50 [1]: 4.61

SMILES: N=C(N)Nc1ccc(C(=O)Oc2ccc([N+](=O)[O-])cc2)cc1
- pIC50 [3]: 4.47
- pKd [4]: 4.80

SMILES: c1ccc2c(Nc3ccc4c(c3)CNCC4)nnc(Nc3ccc(C4=NCCN4)cc3)c2c1
- pIC50 [1]: 5.28

SMILES: NCc1ccc(Nc2nnc(Nc3ccc(C4=NCCN4)cc3)c3ccccc23)cc1
- pIC50 [1]: 4.97

SMILES: CCCC[C@H](NC(=O)c1ccccc1)C(=O)N[C@@H](CCCCN)C(=O)N[C@@H](CCCNC(=N)N)C(=O)N[C@H](C=O)CCCNC(=N)N (Bz-[Nle]KRR-aldehyde)
- pIC50 [1]: 5.39

SMILES: N=C(N)c1cccc(NC(=O)Nc2cccc(C(=N)N)c2)c1 [AMICARBALIDE]
- pKd [5]: 4.05
- pKd [6]: 4.05
- pKd [7]: 4.05
- pKd [8]: 4.15
- pIC50 [3]: 5.55
- pKd [4]: 4.82
